The values below come from patent publication US20060014231A1, “Methods and compositions to promote bone homeostasis” (priority 2004, published 2006).

One assay has as its target T1, NR1H3 (Homo sapiens, UniProt Q13133).
T1 construct: amplification of the complete open reading frame from ATG start codon to the stop codon of drugable genes; expressed in transfected cells; host or cells: primary human bone-marrow mesenchymal progenitor cells (MPCs), adenoviral transduction (Ad5-NR1H3 with Ad-hCAR)
T1 sequence (Q13133 1-447): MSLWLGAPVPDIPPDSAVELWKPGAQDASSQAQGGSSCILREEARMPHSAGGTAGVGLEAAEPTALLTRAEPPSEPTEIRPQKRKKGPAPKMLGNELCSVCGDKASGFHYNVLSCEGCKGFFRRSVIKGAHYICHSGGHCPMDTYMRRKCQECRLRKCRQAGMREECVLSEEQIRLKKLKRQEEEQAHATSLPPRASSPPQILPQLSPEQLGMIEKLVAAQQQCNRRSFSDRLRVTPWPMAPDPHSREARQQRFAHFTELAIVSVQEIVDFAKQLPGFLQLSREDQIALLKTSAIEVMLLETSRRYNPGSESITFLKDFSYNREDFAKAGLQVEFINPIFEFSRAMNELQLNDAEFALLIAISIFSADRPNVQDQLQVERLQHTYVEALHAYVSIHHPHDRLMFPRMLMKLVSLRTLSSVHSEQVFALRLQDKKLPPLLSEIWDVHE
The assay can be described thus: Osteogenic marker mRNA levels in MPCs, Ad-NR1H3+T0901317 (rtRT-PCR). The assay is classed as cell-based. Particulars: Ad-NR1H3+T0901317 (1 μM); up-regulated = 4-fold higher than Ad-eGFP or Ad-luciferase; one or more time points. The method, then: 100,000 MPCs are seeded in each well of a 6 well plate in 2 ml MPC medium, containing 10% FCS. The next day, after incubation at 37° C., 10% CO2 in a humidified incubator, cells are co-infected with AdC15-hCAR (final MOI of 750) and Ad-NR5A2, Ad-NR1H3+T0901317 (1 μM) or Ad-BMP2 (positive control) or Ad-eGFP or Ad-luciferase as negative controls (final MOIs of 1250 and 2500). Cells are incubated at 37° C., 10% CO2 in a humidified incubator for a further six days unless cells are already harvested for RNA isolation. Virus is removed and replaced by 2 ml fresh OS medium (proprietary medium containing 10% FCS). Over the next 3 weeks, medium is refreshed 3 times per 2 weeks. Every other time, medium is refreshed half or completely. Monolayers are harvested at several time points (see FIG. 15), total RNA is harvested and quantified and rtRT-PCRs are run as follows: monolayers are washed with ice cold PBS and harvested by adding SV RNA Lysis Buffer. Total RNA is prepared using the SV Total RNA isolation System (Promega, Cat # Z3100). RNA concentration is measured with the Ribogreen RNA Quantification kit (Molecular Probes, Leiden, The Netherlands, Cat No. R-11490). cDNA synthesis is performed using 20 ng total RNA per reaction using the TaqMan Universal PCR Master Mix, No AmpErase UNG, kit (Applied Biosystems, Warrington, UK, Part number 4324018). For each reverse transcriptase (RT) reaction a minus-RT reaction (negative control: no enzyme included in the reaction) is performed. The real-time reverse transcriptase (rtRT)-PCR reaction is performed with gene specific primers on both cDNA and minus-RT samples, using the SYBR Green PCR Master Mix (Applied Biosystems, Warrington, UK, Part number 4309155). Primers are quality controlled by performing PCR reactions on human genomic DNA and on plasmids containing the cDNA encoded by the gene studied if available. If the quality is unsatisfactory, additional primers are designed or validated primer sets are purchased (ABI). For the normalization of the expression levels a RT-PCR reaction is performed on human P-actin using the Human P-actin kit (Applied Biosystems, Warrington, UK, Part number 4310881E). The following program is run on a real-time PCR apparatus (ABI PRISM 7000 Sequence Detection System): 10 min at 25° C., 30 min at 48° C., 5 min at 95° C.
Expression levels for osteogenic marker genes are first normalized for beta-actin levels. The resulting data for Ad-BMP2, Ad-NR5A2 and Ad-NR1H3+T0901317 (1 μM) samples are then compared to those of Ad-eGFP or Ad-luciferase negative control samples, harvested at the same time points, for cells infected at the same MOI.

The next assay concerns primary human MPCs. The assay can be described thus: Mineralization assay (Alizarin RedS / Von Kossa stain). The assay is classed as cell-based. Particulars: MPCs with NR1H3 and ligand. The method, then: On day one, primary human MPCs are seeded in a 6 well plate (Costar or Nunc) at a density of 50,000 to 250,000 cells per well, typically at 100,000 cells per well. MPCs are co-infected one day later with AdC15-hCAR (MOI 750) and Ad-control (eGFP or BMP2) or hit-virus (Ad5) (at MOIs between 250 and 20,000, typically at MOIs 5000 and 2500). For Ad-GPCR or Ad-NHR experiments, cells can additionally be treated with specific ligands. These are added at the EC50 concentration and at concentrations 5-10 times higher and lower. Ligands are added 2-3 times per week. Medium supplemented with 100 μg/ml L-ascorbate and 10 mM beta-glycerophosphate, is refreshed 2 times a week. 20 to 30 days after the start of the experiment, cells are stained with Von Kossa stain or with Alizarin RedS stain.
The Alizarin RedS staining is carried out as follows: cells are washed once with PBS, fixed with 10% paraformaldehyde for 45 minutes at 4° C., and washed 2 times with PBS. Cells are incubated with 40 mM aqueous Alizarin RedS solution, pH 4.1-4.3 for 10 minutes followed by 5 washes with distilled water. Staining is evaluated and photographed using white light.

As for `O=S(=O)(c1ccccc1)N(CC(F)(F)F)c1ccc(C(O)(C(F)(F)F)C(F)(F)F)cc1` [T0901317], at NR1H3, the “BAP mRNA expression” value was “up-regulated”, the “PTHR1 mRNA expression” value is recorded as “up-regulated”, the “RANKL mRNA expression” value is recorded as “up-regulated” and the “aromatase mRNA expression” value is reported as “up-regulated”. For the same molecule, the “osteopontin mRNA expression” value at NR1H3 is on record as “up-regulated”. For the same molecule, the mineralization result in the assay with primary human MPCs is “score well”.
